In ChEMBL document CHEMBL3124775 (Bioorg Med Chem, 2014):

Tests used:
Carbonic anhydrase 12 = Carbonic anhydrase 12 (Homo sapiens, UniProt O43570)
Description: Inhibition of human carbonic anhydrase 12 by stopped-flow CO2 hydrase assay

Carbonic anhydrase 1 = Carbonic anhydrase 1 (Homo sapiens, UniProt P00915); experiment: Inhibition of human carbonic anhydrase 1 by stopped-flow CO2 hydrase assay
Carbonic anhydrase 9 = Carbonic anhydrase 9 (Homo sapiens, UniProt Q16790)
Description: Inhibition of human carbonic anhydrase 9 by stopped-flow CO2 hydrase assay

Carbonic anhydrase 2 = Carbonic anhydrase 2 (Homo sapiens, UniProt P00918); experiment: Inhibition of human carbonic anhydrase 2 by stopped-flow CO2 hydrase assay

Carbonic anhydrase 12, sequence (O43570 whole entry): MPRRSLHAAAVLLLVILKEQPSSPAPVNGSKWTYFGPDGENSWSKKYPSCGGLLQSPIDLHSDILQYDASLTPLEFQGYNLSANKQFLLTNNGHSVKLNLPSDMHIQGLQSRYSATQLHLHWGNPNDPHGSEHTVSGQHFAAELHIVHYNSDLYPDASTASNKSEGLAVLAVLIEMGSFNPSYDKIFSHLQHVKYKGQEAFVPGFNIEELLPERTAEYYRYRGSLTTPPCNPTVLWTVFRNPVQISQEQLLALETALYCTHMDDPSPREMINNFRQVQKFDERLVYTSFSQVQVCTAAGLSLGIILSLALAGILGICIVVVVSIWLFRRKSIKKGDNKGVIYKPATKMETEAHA
Carbonic anhydrase 1, sequence (P00915 whole entry): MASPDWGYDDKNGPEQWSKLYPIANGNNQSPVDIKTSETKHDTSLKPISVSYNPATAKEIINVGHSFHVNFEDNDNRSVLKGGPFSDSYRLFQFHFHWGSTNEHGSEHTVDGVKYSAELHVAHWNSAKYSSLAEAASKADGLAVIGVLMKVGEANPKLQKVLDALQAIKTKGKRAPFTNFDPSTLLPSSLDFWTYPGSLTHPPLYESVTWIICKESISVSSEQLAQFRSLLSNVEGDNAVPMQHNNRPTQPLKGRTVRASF

Row | Ki (Carbonic anhydrase 12) [µM] | Ki (Carbonic anhydrase 1) [µM] | Ki (Carbonic anhydrase 9) [µM] | Ki (Carbonic anhydrase 2) [µM] | Compound
1 | 0.24 | > 50 | 0.27 | – | C/C(CN1C(=O)c2ccccc2S1(=O)=O)=N\O (mixture of isomers)
2 | 0.0419 | > 50 | 0.31 | > 50 | O=C(O)CN1C(=O)c2ccccc2S1(=O)=O
3 | > 50 | > 50 | 0.29 | – | N#CCCCN1C(=O)c2ccccc2S1(=O)=O
4 | 13.4 | > 50 | > 50 | > 50 | O=C1c2ccccc2C(=O)N1CN1C(=O)c2ccccc2S1(=O)=O
5 | 1.31 | > 50 | > 50 | – | O=C1c2ccccc2S(=O)(=O)N1Cc1c(F)cccc1F
6 | 0.094 | > 50 | 0.14 | – | C=CCN1C(=O)c2ccccc2S1(=O)=O
7 | 0.97 | > 50 | > 50 | > 50 | O=C(CN1C(=O)c2ccccc2S1(=O)=O)c1ccccc1[N+](=O)[O-]
8 | 0.25 | > 50 | > 50 | > 50 | O=[N+]([O-])c1ccccc1CNS(=O)(=O)c1ccccc1CO
9 | 2.01 | > 50 | > 50 | > 50 | O=C(CN1C(=O)c2ccccc2S1(=O)=O)c1cccc([N+](=O)[O-])c1
10 | 2.69 | > 50 | 0.38 | – | O=C1c2ccccc2S(=O)(=O)N1Cc1cccc(F)c1
11 | 2.52 | > 50 | > 50 | > 50 | O=C1c2ccccc2S(=O)(=O)N1Cc1ccccc1F
12 | 0.15 | > 50 | 0.24 | – | N#Cc1ccc(CN2C(=O)c3ccccc3S2(=O)=O)cc1
13 | 2.76 | > 50 | 0.39 | > 50 | O=C1c2ccccc2S(=O)(=O)N1Cc1ccc(Cl)c(Cl)c1
14 | 0.0284 | > 50 | 0.2 | 0.0381 | CNC(=O)CN1C(=O)c2ccccc2S1(=O)=O
15 | > 50 | > 50 | > 50 | > 50 | O=S1(=O)N=C(OCc2cccc(Br)c2)c2ccccc21
16 | 0.21 | > 50 | 0.097 | – | C/C=C/CN1C(=O)c2ccccc2S1(=O)=O
17 | 0.44 | > 50 | 0.15 | – | CC(=O)CN1C(=O)c2ccccc2S1(=O)=O
18 | 0.57 | > 50 | 0.21 | – | C#CCN1C(=O)c2ccccc2S1(=O)=O
19 | 0.0765 | > 50 | 0.33 | – | CCOC(=O)CN1C(=O)c2ccccc2S1(=O)=O
20 | 0.0251 | > 50 | > 50 | – | O=C1c2ccccc2S(=O)(=O)N1Cc1ccccc1Br
21 | 2.91 | > 50 | 0.23 | 1.8 | O=C1c2ccccc2S(=O)(=O)N1CC(O)COc1ccc(Cl)cc1 (stereo unspecified)
22 | 2.54 | > 50 | > 50 | > 50 | O=C1c2ccccc2S(=O)(=O)N1Cc1cccc2ccccc12
23 | 1.78 | > 50 | > 50 | > 50 | O=C(CN1C(=O)c2ccccc2S1(=O)=O)c1ccccc1
24 | 0.0211 | > 50 | 0.36 | – | O=C1c2ccccc2S(=O)(=O)N1Cc1cccc(Br)c1
25 | 0.71 | > 50 | 0.29 | > 50 | N#CCN1C(=O)c2ccccc2S1(=O)=O

Row | Compound | Ki (Carbonic anhydrase 12) [µM] | Ki (Carbonic anhydrase 1) [µM] | Ki (Carbonic anhydrase 9) [µM] | Ki (Carbonic anhydrase 2) [µM]
26 | O=C1c2ccccc2S(=O)(=O)N1Cc1cccc([N+](=O)[O-])c1 | 0.0246 | > 50 | – | –
27 | O=C1c2ccccc2S(=O)(=O)N1Cc1ccccc1[N+](=O)[O-] | 0.0281 | > 50 | 0.091 | –
28 | O=C1c2ccccc2S(=O)(=O)N1Cc1cc(-c2ccc([N+](=O)[O-])cc2)no1 | – | > 50 | 0.31 | > 50
